Target: T1, human VR1 (Homo sapiens, UniProt Q8NER1)
T1 construct: expressed in transfected cells
Assay: Capsaicin-induced Ca2+ influx in the human VR1-transfected CHO cell line (Assay 1)
Format: cell-based
Conditions: not given
Protocol: [Measurement of Capsaicin-Induced Ca^2+ Influx in the Human VR1-Transfected CHO Cell Line] (Assay 1)
(1) Establishment of the Human VR1-CHOluc9aeq Cell Line
The cloned hVR1 cDNA was constructed with pcDNA3 vector and transfected into a CHOluc9aeq cell line. The cell line contains aequorin and CRE-luciferase reporter genes as read-out signals. The transfectants were cloned by limiting dilution in selection medium (DMEM/F12 medium (Gibco BRL) supplemented with 10% FCS, 1.4 mM Sodium pyruvate, 20 mM HEPES, 0.15% Sodium bicarbonate, 100 U/ml penicillin, 100 μg/ml streptomycin, 2 mM glutamine, non-essential amino acids and 2 mg/ml G418). Ca^2+ influx was examined in the capsaicin-stimulated clones. […] The human VR1-CHOluc9aeq cells were maintained in the selection medium and passaged every 3-4 days at 1-2.5×10^5 cells/flask ([…]).
(2) Measurement of Ca^2+ Influx Using FDSS-3000
Human VR1-CHOluc9aeq cells were suspended in a culture medium which is the same as the selection medium except for G418 and seeded at a density of 1,000 cells per well into 384-well plates (black walled clear-base/Nalge Nunc International). […] After washing twice with assay buffer the cells were incubated with a test compound or vehicle for 20 min at 25° C. […] Integral R was calculated and compared with controls.

T1 sequence (Q8NER1 whole entry): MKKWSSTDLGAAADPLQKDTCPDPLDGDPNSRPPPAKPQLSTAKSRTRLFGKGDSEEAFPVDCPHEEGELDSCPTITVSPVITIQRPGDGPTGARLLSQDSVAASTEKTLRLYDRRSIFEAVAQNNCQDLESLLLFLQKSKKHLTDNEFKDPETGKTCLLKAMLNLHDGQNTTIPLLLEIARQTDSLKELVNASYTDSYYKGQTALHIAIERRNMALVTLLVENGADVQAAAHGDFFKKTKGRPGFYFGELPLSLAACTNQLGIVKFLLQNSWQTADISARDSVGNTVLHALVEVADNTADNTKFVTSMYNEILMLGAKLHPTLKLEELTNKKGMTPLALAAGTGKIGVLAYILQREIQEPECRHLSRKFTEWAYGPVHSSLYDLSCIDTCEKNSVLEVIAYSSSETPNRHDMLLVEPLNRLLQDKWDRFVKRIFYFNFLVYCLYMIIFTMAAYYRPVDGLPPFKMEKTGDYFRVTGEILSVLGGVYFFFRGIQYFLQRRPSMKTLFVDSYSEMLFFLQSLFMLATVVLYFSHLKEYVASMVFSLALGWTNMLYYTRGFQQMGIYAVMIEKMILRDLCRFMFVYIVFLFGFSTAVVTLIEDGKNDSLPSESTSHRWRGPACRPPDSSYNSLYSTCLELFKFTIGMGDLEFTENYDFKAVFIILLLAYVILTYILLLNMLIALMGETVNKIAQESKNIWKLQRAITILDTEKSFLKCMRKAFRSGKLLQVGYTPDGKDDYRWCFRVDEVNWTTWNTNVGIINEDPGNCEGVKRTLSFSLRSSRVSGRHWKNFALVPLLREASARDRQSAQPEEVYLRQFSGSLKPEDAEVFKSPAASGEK

| SMILES | IC50 [µM] |
| --- | --- |
| COc1cc(CNC(=O)Nc2ccc(Oc3ccccc3)cc2)ccc1O [Example 76] | < 0.1 |
| O=C(Nc1cccc(OC(F)(F)F)c1)Nc1ccccc1CCO [Example 2-2, N-[2-(2-hydroxyethyl)phenyl]-N′-[3(trifluoromethoxy)phenyl]urea] | < 0.1 |

Same assay, conditions: human VR1-CHOluc9aeq cells, 10 nM capsaicin; compound purity about 40 to 90%; read-out: hVR1 class

| IC50 [µM] | SMILES |
| --- | --- |
| 0.5 to 1 | CC(C)(C)c1ccc(C(C)(C)C)c(NC(=O)Nc2ccccc2CCO)c1 [Example 177] |
| 0.5 to 1 | COc1ccc(CNC(=O)Nc2ccccc2)cc1OC [Example 13] |
| 0.5 to 1 | COc1cccc(NC(=O)NCc2cccc(Cl)c2)c1 [Example 39] |
| 0.5 to 1 | CNS(=O)(=O)c1ccc2c(c1)CN(C(=O)Nc1ccc(Oc3ccccc3)cc1)CC2 [Example 95] |
| < 0.1 | COc1cc(CNC(=O)Nc2cccc(Cl)c2)ccc1O [Example 81] |
| 0.5 to 1 | CNS(=O)(=O)c1ccc2c(c1)CN(C(=O)Nc1ccc(Cl)c(C(F)(F)F)c1)CC2 [Example 85] |
| 0.5 to 1 | CS(=O)(=O)Nc1ccc2c(c1)CN(C(=O)NCc1ccc(Br)cc1)CC2 [Example 90] |
| 0.5 to 1 | COc1cccc(NC(=O)NCc2ccc(OC)c(OC)c2)c1 [Example 14] |
| 0.5 to 1 | O=C(Nc1ccccc1CCO)Nc1c(Cl)cccc1Cl [Example 139] |
| 0.5 to 1 | O=C(NCc1ccc(F)c(F)c1)Nc1ccccc1 [Example 50] |
| 0.5 to 1 | COc1cccc(NC(=O)NCc2cccc(F)c2)c1 [Example 47] |
| 0.5 to 1 | O=C(NCc1cccc(O)c1)Nc1ccccc1 [Example 28] |
| 0.5 to 1 | COc1cccc(CNC(=O)Nc2ccc(F)cc2)c1 [Example 11] |
| 0.5 to 1 | O=C(Nc1ccc(Oc2ccccc2)cc1)N1CCc2ccc(S(=O)(=O)N3CCN(CCO)CC3)cc2C1 [Example 89] |
| 0.1 to 0.5 | O=C(NCc1ccc(Cl)c(Cl)c1)Nc1ccccc1 [Example 42] |
| 0.5 to 1 | COc1ccc(CNC(=O)Nc2ccccc2)cc1O [Example 36] |
| 0.1 to 0.5 | COc1cc(CNC(=O)NCc2ccc(Br)cc2)ccc1O [Example 68] |
| 0.5 to 1 | COc1cccc(CNC(=O)Nc2cccc(OC)c2)c1 [Example 10] |
| 0.1 to 0.5 | COc1cccc(NC(=O)NCc2ccc(Cl)c(Cl)c2)c1 [Example 43] |
| 0.5 to 1 | COc1cccc(NC(=O)NCc2cccc(O)c2)c1 [Example 30] |
| 0.5 to 1 | COc1ccc(CNC(=O)Nc2cccc(SC)c2)cc1OC [Example 12] |
| 0.5 to 1 | O=C(NCc1cccc(F)c1)Nc1ccc(F)cc1 [Example 48] |

| IC50 [µM] | SMILES |
| --- | --- |
| 0.5 to 1 | O=C(Nc1ccc(Cl)c(C(F)(F)F)c1)NC1CCCc2ccc([N+](=O)[O-])cc21 (centres unmarked) [Example 94] |
| 0.5 to 1 | CS(=O)(=O)Nc1ccc2c(c1)CN(C(=O)Nc1ccc(Oc3ccccc3)cc1)CC2 [Example 91] |
| 0.1 to 0.5 | O=C(Nc1ccc(-c2ccc([N+](=O)[O-])cc2)cc1)Nc1ccccc1CCO [Example 178] |
| 0.5 to 1 | COc1cccc(CNC(=O)Nc2cccc(SC)c2)c1 [Example 8] |
| 0.5 to 1 | COc1cc2c(cc1OC)CN(C(=O)Nc1cccc(SC)c1)CC2 [Example 20] |
| 0.5 to 1 | COC(=O)c1ccccc1NC(=O)NCc1ccc(O)c(OC)c1 [Example 61] |
| 0.5 to 1 | O=C(NCc1cccc(Cl)c1)Nc1ccc(F)cc1 [Example 40] |
| 0.5 to 1 | COc1ccc(CNC(=O)Nc2cccc(SC)c2)cc1O [Example 35] |
| < 0.1 | COc1cccc(NC(=O)Nc2cccc(-c3ccc(Cl)cc3)c2)c1CCO [Example 251] |
| 0.5 to 1 | COc1cc2c(cc1OC)CN(C(=O)Nc1ccc(F)cc1)CC2 [Example 23] |
| 0.5 to 1 | COc1cc(CNC(=O)Nc2ccc([N+](=O)[O-])cc2Cl)ccc1O [Example 67] |
| 0.5 to 1 | O=C(NCc1cccc(F)c1)Nc1ccccc1 [Example 46] |
| 0.5 to 1 | COc1cccc(NC(=O)NCc2ccc3c(c2)OCO3)c1 [Example 18] |
| 0.5 to 1 | COCOc1cccc(CNC(=O)Nc2ccccc2)c1 [Example 24] |
| 0.1 to 0.5 | COc1cc(CNC(=O)Nc2ccccc2F)ccc1O [Example 75] |
| 0.1 to 0.5 | O=C(Nc1cc(C(F)(F)F)ccc1Cl)Nc1ccccc1CCO [Example 144] |
| 0.5 to 1 | CN(C)S(=O)(=O)c1ccc2c(c1)CN(C(=O)Nc1ccc(Oc3ccccc3)cc1)CC2 [Example 88] |
| 0.5 to 1 | O=C(Nc1ccccc1F)Nc1ccccc1CCO [Example 130] |
| 0.5 to 1 | CSc1cccc(NC(=O)NCc2ccc(F)c(F)c2)c1 [Example 49] |
| 0.5 to 1 | COCOc1cccc(CNC(=O)Nc2ccc(F)cc2)c1 [Example 27] |
| 0.5 to 1 | O=C(NCc1cccc(Cl)c1)Nc1ccccc1 [Example 38] |
| 0.5 to 1 | COc1ccc(COc2cc(CNC(=O)Nc3ccccc3)ccc2OC)cc1 [Example 6] |

| IC50 [µM] | SMILES |
| --- | --- |
| 0.5 to 1 | O=C(Nc1cc(Cl)ccc1Cl)Nc1ccccc1CCO [Example 162] |
| 0.5 to 1 | CCOC(=O)c1ccc(NC(=O)Nc2ccccc2CCO)cc1 [Example 163] |
| 0.5 to 1 | O=C(NCc1ccc2c(c1)OCO2)Nc1ccc(F)cc1 [Example 19] |
| 0.5 to 1 | CC(C)c1cccc(C(C)C)c1NC(=O)Nc1ccccc1CCO [Example 142] |
| 0.1 to 0.5 | COc1cc(CNC(=O)Nc2cccc(SC)c2)ccc1O [Example 32] |
| 0.1 to 0.5 | CS(=O)(=O)Nc1ccc2c(c1)CN(C(=O)Nc1ccc(Cl)c(C(F)(F)F)c1)CC2 [Example 92] |
| 0.1 to 0.5 | COc1cc2c(cc1O)CN(C(=O)Nc1ccc(Cl)c(C(F)(F)F)c1)CC2 [Example 69] |
| 0.5 to 1 | O=C(NCc1cccc(O)c1)Nc1ccc(F)cc1 [Example 31] |
| 0.5 to 1 | O=C(Nc1ccccc1CCO)Nc1ccc(Cl)cc1C(F)(F)F [Example 143] |
| < 0.1 | COc1cc(CNC(=O)Nc2cc(C(F)(F)F)ccc2Cl)ccc1O [Example 80] |
| 0.5 to 1 | CC(=O)Nc1ccc2c(c1)C(NC(=O)Nc1ccc(Cl)c(C(F)(F)F)c1)CCC2 (centres unmarked) [Example 97] |
| 0.5 to 1 | COCOc1cccc(CNC(=O)Nc2cccc(SC)c2)c1 [Example 26] |
| 0.5 to 1 | CSc1cccc(NC(=O)NCc2ccc3c(c2)OCO3)c1 [Example 16] |
| 0.5 to 1 | CCOC(=O)c1ccccc1NC(=O)Nc1ccccc1CCO [Example 140] |
| 0.5 to 1 | CSc1cccc(NC(=O)NCc2cccc(F)c2)c1 [Example 45] |
| 0.5 to 1 | O=C(Nc1ccccc1CCO)Nc1ccccc1-c1ccccc1 [Example 141] |
| 0.5 to 1 | O=C(Nc1ccccc1CCO)Nc1cccc(Cl)c1Cl [Example 137] |
| 0.5 to 1 | CSc1cccc(NC(=O)NCc2cccc(Cl)c2)c1 [Example 37] |
| 0.1 to 0.5 | O=C(NCc1ccc(Cl)c(Cl)c1)Nc1ccc(F)cc1 [Example 44] |
| 0.5 to 1 | COc1cc(CNC(=O)Nc2ccccc2)ccc1O [Example 33] |
| 0.5 to 1 | COc1cc2c(cc1OC)CN(C(=O)Nc1ccccc1)CC2 [Example 21] |
| 0.5 to 1 | COc1cccc(NC(=O)N2CCc3cc(OC)c(OC)cc3C2)c1 [Example 22] |

| IC50 [µM] | SMILES |
| --- | --- |
| 0.5 to 1 | O=C(NCc1ccc(F)c(F)c1)Nc1ccc(F)cc1 [Example 52] |
| 0.5 to 1 | COc1ccc(CNC(=O)Nc2ccc(F)cc2)cc1OC [Example 15] |
| 0.5 to 1 | COc1ccc(COc2cc(CNC(=O)Nc3ccc(F)cc3)ccc2OC)cc1 [Example 7] |
| 0.1 to 0.5 | COc1cc(CNC(=O)NCCc2ccccc2)ccc1O [Example 77] |
| 0.5 to 1 | CN(C)CCNS(=O)(=O)c1ccc2c(c1)CN(C(=O)Nc1ccc(Cl)c(C(F)(F)F)c1)CC2 [Example 87] |
| 0.5 to 1 | COc1cccc(NC(=O)NCc2ccc(F)c(F)c2)c1 [Example 51] |
| 0.5 to 1 | O=C(NCc1ccc2c(c1)OCO2)Nc1ccccc1 [Example 17] |
| 0.5 to 1 | COc1cccc(CNC(=O)Nc2ccccc2)c1 [Example 9] |
| 0.5 to 1 | O=C(Nc1ccc(Cl)cc1Cl)Nc1ccccc1CCO [Example 138] |
| 0.1 to 0.5 | COc1cc(CNC(=O)Nc2ccccc2Cl)ccc1O [Example 79] |
| < 0.1 | O=C(Nc1cccc(-c2ccc(F)cc2)c1)Nc1ccccc1CCO [Example 193] |
| 0.5 to 1 | CN(C)S(=O)(=O)c1ccc2c(c1)CN(C(=O)Nc1ccc(Cl)c(C(F)(F)F)c1)CC2 [Example 86] |
| < 0.1 | O=C(Nc1cccc(-c2ccc(Cl)cc2)c1)Nc1ccccc1CCO [Example 194] |
| 0.5 to 1 | O=C(Nc1ccccc1CCO)Nc1cccc2cc(O)ccc12 [Example 167] |
| 0.1 to 0.5 | NS(=O)(=O)c1ccc2c(c1)CN(C(=O)Nc1ccc(Cl)c(C(F)(F)F)c1)CC2 [Example 84] |
| 0.5 to 1 | COCOc1cccc(CNC(=O)Nc2cccc(OC)c2)c1 [Example 25] |
| 0.5 to 1 | CS(=O)(=O)Nc1ccc2c(c1)CN(C(=O)Nc1ccc(Br)cc1)CC2 [Example 93] |
| 0.5 to 1 | CSc1cccc(NC(=O)NCc2cccc(O)c2)c1 [Example 29] |
| < 0.1 | CN(C)c1ccc(-c2cccc(NC(=O)Nc3ccccc3CCO)c2)cc1 [Example 170] |

| SMILES | IC50 [µM] |
| --- | --- |
| COc1cc(CNC(=O)Nc2cccc(C(C)=O)c2)ccc1O [Example 59] | 0.5 to 1 |

Tested on: not given
Assay: not given
Conditions: not given

| melting point [°C] | SMILES |
| --- | --- |
| 130 | COc1cc2c(cc1O)CN(C(=O)Nc1ccc(Cl)c(C(F)(F)F)c1)CC2 [Example 78] |
